Series [1] relates to 5TGM1 mice. The series is described as follows: Bone mass density analysis on x-ray images of 5TGM1 mice. The conditions noted are these: compared with tumor-bearing untreated mice. The format is in vivo. Here is the method: (§1) Testing Gal3M and carfilzomib in 5TGM1 syngeneic mice model. 5TGM1 cells were washed once with PBS (Sigma-Aldrich) and counted. The suspension containing […] 5TGM1 cells was injected I.V. into 20 C57BL/KaLwRij mice, 5 non-injected mice were used as negative controls. Tumor engraftment was assessed by testing IgG2b in the sera once a week. After 14 days the injected mice were randomly divided into four groups (five mice/group). Control group #1 was injected with PBS-only, group #2 received a dose of Gal3M (100 μg/mouse), group #3 received a dose of carfilzomib (112 μg/mouse) and group #4 received a dose of carfilzomib (112 μg/mouse) plus Gal3M (100 ug/mouse). Treatment effect on tumor growth was assessed by testing IgG2b and SP17 levels in the sera. Anesthetized animals were euthanized after 28 days and a postmortem examination was conducted on the whole animals and dissected organs.
Bone mass density analysis. X-ray images were taken at the euthanasia day using IVIS Lumina Series III Pre-clinical In Vivo Imaging System (Perkin Elmer, USA) and bone mass density analysis (BMD) were performed as previously described (McManus M M, 2011).

In series [2] the test system is 5TGM1 cells. The series is described as follows: Chemotaxis assay (Transwell). The format is cell-based, murine. Here is the method:
Chemotaxis assay. 5TGM1 cells (4×10^5/well) were plated in 100 μL serum-free medium in the top chambers of 24-well Transwell™ inserts (Corning Costar, N.Y., USA) with 8-μm. Complete cell culture medium (600 μL) containing 10% FBS was added to the bottom chamber. Cells were treated for 4 hours with Gal3M (10 μg/ml), carfilzomib (10 nM) or carfilzomib plus Gal3M (same doses), and 5TGM1 cells in the lower chamber were fixed and counted.

Series [3] relates to 5TGM1 cells. The series is described as follows: Cell viability assay (ViaLight Plus). The conditions noted are these: Carf 10 nM, Gal3M 10 ug/ml. The format is cell-based, murine. On the procedure: Cell viability assay. 5TGM1 cells were treated for 48 hours with carfilzomib, Gal3M or the combination of these two agents, then cell viability was assessed by the ViaLight Plus Cell Proliferation and Cytotoxicity BioAssay Kit (Lonza) according to the directions of the manufacturer.

Series [4] concerns Raw264.7 cells co-cultured with 5TGM1 cells. The series is described as follows: 5TGM1-driven osteoclastogenesis in vitro (TRAP staining). The format is cell-based, murine. The conditions noted are these: co-culture with 5TGM1, 5 μM carfilzomib, 10 μM Gal3M, 7 days, vs control co-culture. On the procedure: Osteoclast differentiation from RAW264.7 cells. For co-culture experiments Raw264.7 and 5TGM1 cells were seeded on a 6-well plate at a density of 1×10^4 cells/well (about 8×103 Raw264.7 and 2×103 […]) and cultured in presence/absence of carfilzomib, Gal3M or carfilzomib plus Gal3M. After 5-7 days cells were fixed on the culture plates with citrate-acetone solution and stained for TRAP (Sigma-Aldrich). Osteoclasts were identified and enumerated under light microscopy by the presence of ≧3 nuclei by using an Olympus microscope.

The conditions of series [5]: MM patients; cited from earlier work.
Series [6] has as its system lung cancer (tumor). The series is described as follows: ELISA for AKAP-4 expression in tumor and lung tissue. Type of series: in vivo, mice. The settings on record: tumor and lung tissue lysates. From the text: The wells were coated with tumor and lung tissue lysates.
(In general: An ELISA detects its analyte on a solid surface through an enzyme-linked reagent.)

Series [7] relates to 5TGM1 cells. The series is described as follows: 5TGM1 syngeneic mice model of MM, serum IgG2b and SP17 ELISA. Type of series: in vivo, C57BL/KaLwRij mice. Here is the method: as §1
ELISA for Sp17 and IgG2b. The levels of SP17 and IgG2b in mice serum were measured by direct ELISA as follows. Flat-bottom 96-well polycarbonate plates were coated with 100 μL/well sera diluted 1:25 in carbonate coating buffer (0.1 M Na2CO3, 0.1 M NaHCO3, pH 9.5) at 4° C. overnight. Then, after blocking with PBS supplemented with 1% W/V BSA for 1 hour at RT, plates were incubated with mouse anti-mouse Sp17 or IgG2b primary antibodies (1:500 in PBS, 100 μL/well, Santa Cruz Biotechnology) for 1 hour at RT. Then, plates were washed thrice with PBS with 0.025% V/V Tween-20 (200 μL/well) and incubated at RT with anti-mouse HRP-labeled secondary antibodies (1:10,000 in PBS; Abcam, Cambridge, Mass., USA) for 1 hour. The plates were washed thrice with PBS containing 0.025% V/V Tween-20 (200 μL/well), the TMB colorimetric substrate (Thermo Fisher Scientific, Waltham, Mass., USA) was added, and after 5 minutes the absorbance was measured (0.1 s) at 450 nm on a Victor 2 multimodal microplate reader (PerkinElmer, Billerica, Mass., USA). All samples were run in triplicates.

Series [8] concerns LLC. The series is described as follows: Murine lung cancer (LLC) study, measurement of tumor size. The conditions noted are these: LLC mice, treatment from 14 days after injection, Carfilzomib 112 ug and 224 ug. Type of series: in vivo. Here is the method: Measurement of tumor size. 14 days after injection of LLC, the mice were treated with XM and Carfilzomib (112 ug and 224 ug) for two (2) consecutive days three (3) times weekly.

Series [9] concerns kidney and heart. The series is described as follows: Kidney and heart toxicity in 5TGM1 mice (hematoxylin/eosin, activated caspase-3 IHC). The conditions noted are these: mouse, in vivo.
Method: 5TGM1 cells were washed once with PBS (Sigma-Aldrich) and counted. […] Tumor engraftment was assessed by testing IgG2b in the sera once a week. After 14 days the injected mice were randomly divided into four groups (five mice/group). […] Treatment effect on tumor growth was assessed by testing IgG2b and SP17 levels in the sera. Anesthetized animals were euthanized after 28 days and a postmortem examination was conducted on the whole animals and dissected organs.
Immunohistochemistry analysis of markers of osteoclasts (anti-Cathepsin K antibody, Abcam), osteoblasts (anti-osteocalcin antibody, Abcam) and apoptosis (anti-activated caspase-3 antibody, Cell Signaling Technologies) were carried out in paraffin-embedded sections. Hearts and kidneys from treated and control mice were fixed in formalin, dehydrated in ethanol, embedded in paraffin, and then cut in 3.5 μm-thick sections. For bone sections, following formalin-fixation, decalcification with 10% EDTA (pH=8), and de-hydration in ethanol, femurs were included in paraffin, then cut in 5 μm-thick sections. […] Sections were rinsed twice in PBS+0.05% Tween-20, then endogenous peroxidase was blocked with 1% H2O2 in PBS for 15′. After rinsing three times with PBS+0.05% Tween-20 for 2′, slides were incubated with the secondary antibody (1:1000, Goat anti-Rabbit-HRP, Abcam) for 1 hour at RT. […]
Series [10] has as its system 5TGM1 mice. The series is described as follows: IHC for osteocalcin and Cathepsin K on decalcified bones. The format is in vivo. On the procedure:
Immunohistochemistry. Immunohistochemistry analysis of markers of osteoclasts (anti-Cathepsin K antibody, Abcam), osteoblasts (anti-osteocalcin antibody, Abcam) and apoptosis (anti-activated caspase-3 antibody, Cell Signaling Technologies) were carried out in paraffin-embedded sections. Hearts and kidneys from treated and control mice were fixed in formalin, dehydrated in ethanol, embedded in paraffin, and then cut in 3.5 μm-thick sections. For bone sections, following formalin-fixation, decalcification with 10% EDTA (pH=8), and de-hydration in ethanol, femurs were included in paraffin, then cut in 5 μm-thick sections. After deparaffinization in xylene and re-hydration (100%-95%-70%-50% ethanol scale), slides were placed 10′ in distilled water, then incubated 20′ at 98° C. in Sodium Citrate Buffer (10 mM Sodium Citrate, 0.05% Tween 20, pH 6.0). After blocking with PBS+5% V/V FBS (2 hours at room temperature), the anti Cathepsin K, steocalcin and active Caspase3 antibodies were added (diluted 1:400 in PBS+1% BSA) and allowed to incubate overnight at 4° C. Sections were rinsed twice in PBS+0.05% Tween-20, then endogenous peroxidase was blocked with 1% H2O2 in PBS for 15′. After rinsing three times with PBS+0.05% Tween-20 for 2′, slides were incubated with the secondary antibody (1:1000, Goat anti-Rabbit-HRP, Abcam) for 1 hour at RT. […]

The subject of series [11] is 5TGM1 cells. The series is described as follows: Invasion ability of 5TGM1 cells. The conditions noted are these: Carf 10 nM, Gal3M 10 ug/ml. Type of series: cell-based, murine.
In series [12] the test system is kidney, liver, lung, spleen, and heart. The series is described as follows: Western Blot of apoptotic marker caspase-3 in organs of LLC mice. Type of series: in vivo, mouse. The conditions noted are these: after 36 days. The text has this:
FIG. 14 is a Western Blot of the apoptopic marker […]-3 of cells in solid tumors with no treatment, XM alone, Carfilzomib alone, and Carfilzomib plus XM. After 36 days, the mice were sacrificed and organs collected for the Western Blot.
In general terms: A western blot detects proteins with antibodies after separation by electrophoresis.

Structures are written as SMILES.

Broadly, the inhibition is the change of the read-out against control, counted positive when it falls. On to `CC(C)C[C@H](NC(=O)[C@H](CCc1ccccc1)NC(=O)CN1CCOCC1)C(=O)N[C@@H](Cc1ccccc1)C(=O)N[C@@H](CC(C)C)C(=O)[C@@]1(C)CO1` [Carfilzomib], for which, in [1] (distal femur end), the “BMD increase ROI2” value was found to be 19%. Moreover, the “BMD increase ROI1” value in [1] (proximal femur end) was determined as 28%. Moreover, the “BMD increase ROI3” value in series [1] (tibia) is 12%. Besides, the “chemotaxis of 5TGM1 (in words)” value in series [2] (Carf 10 nM, Gal3M 10 ug/ml) is “significantly inhibited”. Also, the inhibition at 0.01 µM in [2] (Mus musculus, 5TGM1 cells, 4 hours, Gal3M 10 μg/ml, carfilzomib 10 nM, read-out: inhibition of the ability of 5TGM1 cells to migrate in response to chemotactic stimuli) was determined as 40%. In addition, the “growth of 5TGM1 (in words)” value in series [3] was “significantly inhibited”. For the same compound, the “decrease in formation of TRAP+/multinucleated Raw264.7 cells” value in [4] worked out at 55%. In addition, in series [5], the “treated patients discontinuing therapy because of renal and cardiac side effects” value was “approximately 15%”. In addition, the “effect on lung cancer (AKAP-4 ELISA)” value in series [6] is listed as “have an effect on lung cancer (tumor)”. The “decrease in IgG2b levels” value in series [7] (day 21, treated on day 14, compared to untreated MM bearing mice) was 14%. Besides, the “decrease in SP17 serum levels” value in series [7] (day 28, compared to untreated mice) came out at 37%. Further, the “decrease in IgG2b levels” value in [7] (day 28, treated on day 14, compared to untreated MM bearing mice) worked out at 36%. For the same compound, the “tumor growth (tumor size)” value in series [8] is given as “inhibited tumor growth”. Moreover, in series [9] (C57BL/KaLwRij, 28 days), the “histological analysis of kidney and heart: morphology and activated caspase-3” value was “associated with changes in cellular architecture and caspase-3 activation”. Moreover, the kidney toxicity entry in [9] is “kidney toxicity both at minimum and maximum dose”. In series [10], the “Cathepsin K-positive cells (osteoclasts marker)” value was “decrease” and the “osteocalcin-positive cells (osteoblasts marker)” value is “increase”. Also, the “invasion ability of 5TGM1 (in words)” value in series [11] is “significantly inhibited”. For the same compound, the “apoptosis (caspase-3 Western Blot) in mouse organs” value in series [12] is reported as “increased apoptosis”.
